Results taken from patent publication EP0731697B1, “SSI TYRPHOSTINS AND PHARMACEUTICAL COMPOSITIONS” (priority 1993, dated 1995).
Read-outs that look alike come from different tables or passages of the source.

What was measured:
[1] = molecular target: Her-2/neu receptor (Homo sapiens, UniProt P04626); settings: even at concentrations above 100 uM; cited from earlier work
[2] = test system: mice
[3] = test system: TNF-α; experiment: LPS-induced production of TNF-α by activated murine peritoneal macrophages in vitro
Description: The amount of TNF-α was quantitated by assessing the extent of killing of the TNF-α sensitive cell line (A9) essentially as described by Ruff and Gilford, G. E. J. Immunol. […] Briefly, mouse A9 fibroblasts were plated in 96-well flat-bottom micro-titer plates at 30,000 cells /0.1 ml to establish a dense monolayer. After incubation for 24 hr at 37 C in a humidified 5% CO2 atmosphere, cycloheximide was added to a final concentration of 50 ug/ml and 100 ul of serially diluted test samples were added to the wells. After incubation for additional 18 hr the supernatants were carefully aspirated, the monolayer were washed twice with PBS and 200 ul of neutral red solution (0.02%) was added. After incubation for 2 hr, cells were washed and the dye that had been absorbed by the live cells was extracted using 200 ul of 50% ethanol. The concentration of the dye was determined by an ELISA autoreader using a 550 nm filter. Murine TNF-α ELISA kit from ENDOGEN Inc., was used for quancitation of murine TNF-α.
Mice were injected i.p. with 1 ml sodium periodate (5mM). Three to 4 days later, macrophages were washed from the peritoneal cavity with PBS. After centrifugation at 170g for 10 min at 40° C, the cell pellet was resuspended in RPMI 1640 containing 10% heat-inactivated new born calf serum. Adherent macrophage monolayers were obtained by plating the cells in 96-well plastic trays at 4x10^5 cells/well for 2 hr at 37°C in 5% CO2/air. Nonadherent cells were removed by suction and complete medium was added.

[4] = test system: murine peritoneal macrophages; experiment: NO2- production by periodate-activated murine peritoneal macrophages; format: cell-based
Description: Nitrite (NO2-) levels were determined in supernatants at the time indicated, as described herein. (Table 5) Values are expressed as means of triplicate cultures. […] Two additional experiments yielded similar results.
NO2- the product of NO oxidation is used to determine NO produced. Nitrite concentration in supernatants of macrophages was measured by a microplate assay method. 100 ul aliquots of supernatants were incubated with an equal volume of Griess reagent (1% sulfanilamide/O.1% naphthylethylene diamine dihydrochloride/2.5% H3PO4) at room temperature for 10 min. The absorbance at 550nm was determined in a microplate reader. Sodium nitrite was used as a standard.
Mice were injected i.p. with 1 ml sodium periodate (5mM). Three to 4 days later, macrophages were washed from the peritoneal cavity with PBS. After centrifugation at 170g for 10 min at […], the cell pellet was resuspended in RPMI 1640 containing 10% heat-inactivated new born calf serum. Adherent macrophage monolayers were obtained by plating the cells in 96-well plastic trays at 4x10^5 cells/well for 2 hr at 37°C in 5% CO2/air. Nonadherent cells were removed by suction and complete medium was added. […]

Chain of Her-2/neu receptor (P04626 23-1255): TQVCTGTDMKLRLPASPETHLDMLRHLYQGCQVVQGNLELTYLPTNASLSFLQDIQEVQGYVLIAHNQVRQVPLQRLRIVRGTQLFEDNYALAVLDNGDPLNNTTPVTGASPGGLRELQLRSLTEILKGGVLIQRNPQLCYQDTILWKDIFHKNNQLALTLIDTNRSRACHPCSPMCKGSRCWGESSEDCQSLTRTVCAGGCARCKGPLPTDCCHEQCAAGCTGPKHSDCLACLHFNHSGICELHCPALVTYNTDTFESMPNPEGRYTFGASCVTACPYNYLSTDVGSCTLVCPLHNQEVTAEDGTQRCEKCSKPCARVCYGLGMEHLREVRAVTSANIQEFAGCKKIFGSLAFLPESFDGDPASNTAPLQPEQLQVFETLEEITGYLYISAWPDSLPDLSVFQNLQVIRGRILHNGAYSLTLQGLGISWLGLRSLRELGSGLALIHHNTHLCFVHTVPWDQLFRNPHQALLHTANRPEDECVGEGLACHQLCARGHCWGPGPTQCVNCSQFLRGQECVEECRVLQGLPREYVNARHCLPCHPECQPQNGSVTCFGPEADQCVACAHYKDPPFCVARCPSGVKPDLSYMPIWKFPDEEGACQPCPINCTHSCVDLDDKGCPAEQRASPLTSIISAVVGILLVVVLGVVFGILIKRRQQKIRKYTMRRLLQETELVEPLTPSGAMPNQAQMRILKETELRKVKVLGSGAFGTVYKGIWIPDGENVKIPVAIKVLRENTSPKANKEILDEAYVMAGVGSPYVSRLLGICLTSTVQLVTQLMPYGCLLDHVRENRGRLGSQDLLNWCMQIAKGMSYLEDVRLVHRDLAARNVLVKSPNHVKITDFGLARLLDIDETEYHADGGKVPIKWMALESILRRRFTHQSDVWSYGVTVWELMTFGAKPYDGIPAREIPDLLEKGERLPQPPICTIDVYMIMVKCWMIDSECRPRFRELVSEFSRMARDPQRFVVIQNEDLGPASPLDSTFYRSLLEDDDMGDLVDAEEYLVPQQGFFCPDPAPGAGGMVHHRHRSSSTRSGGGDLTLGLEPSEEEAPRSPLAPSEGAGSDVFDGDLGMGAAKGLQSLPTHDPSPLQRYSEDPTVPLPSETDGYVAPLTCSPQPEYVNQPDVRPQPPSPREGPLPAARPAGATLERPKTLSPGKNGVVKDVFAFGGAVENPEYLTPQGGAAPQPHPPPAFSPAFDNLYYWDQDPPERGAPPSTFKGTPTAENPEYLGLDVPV

N#CC(C#N)=Cc1ccc([N+](=O)[O-])c(O)c1 [SSI 3]
effect on Her-2/neu receptor [1]: no effect
mice survived ([2]; 200 ug/mouse, LPS 1.5 mg/mouse): 3 out of 5 mice
mice (still alive) ([2]; 12 h): 20 mice
mice (still alive) ([2]; 36 h): 18 mice
mice (still alive) ([2]; 60 h): 18 mice
TNF-α ([3]; LPS +): <5 pg/mL
TNF-α ([3]; LPS -): <5 pg/mL
ability to inhibit LPS-induced production of TNF-α by activated murine peritoneal macrophages in vitro ([3]; among the tyrphostins tested): most potent
LPS induced NO production ([4]; 50 um, added 2 hours prior to LPS, 24 hours): markedly inhibit
NO production ([4]; 50 um, from an initial level of 70 uM (no LPS), 24 hours): ~30 µM
NO production ([4]; 50 um, from an initial level of 40 (10 ug/ml of LPS), 24 hours): approximately 20 uM
NO2- production in unstimulated and LPS-stimulated periodate-activated murine macrophages ([4]; LPS (10 mg/ml)): effectively inhibited
NO2- Production by Macrophages ([4]; SSI 20 uM, LPS 10 ug, 1 DAY): 30,2 µg
NO2- Production by Macrophages ([4]; SSI 20 uM, LPS 10 ug, 2 DAY): 91 µg
NO2- Production by Macrophages ([4]; SSI 20 uM, LPS 10 ug, 3 DAY): 90,1 µg
NO2- Production by Macrophages ([4]; SSI 20 uM, no LPS, 1 DAY): 11,8 µg
NO2- Production by Macrophages ([4]; SSI 20 uM, no LPS, 2 DAY): 17,5 µg
NO2- Production by Macrophages ([4]; SSI 20 uM, no LPS, 3 DAY): 7,5 µg
NO2- Production by Macrophages ([4]; SSI 50uM, LPS 10 ug, 1 DAY): 6,1 µg
NO2- Production by Macrophages ([4]; SSI 50uM, LPS 10 ug, 2 DAY): 31,4 µg
NO2- Production by Macrophages ([4]; SSI 50uM, LPS 10 ug, 3 DAY): 19,2 µg
NO2- Production by Macrophages ([4]; SSI 50 uM, no LPS, 1 DAY): 5 µg
NO2- Production by Macrophages ([4]; SSI 50 uM, no LPS, 2 DAY): 8,6 µg
NO2- Production by Macrophages ([4]; SSI 50 uM, no LPS, 3 DAY): 4,8 µg
